US20250026743A1, “HETEROARYL-LINKED ANALOGS AS MGLU5 NEGATIVE ALLOSTERIC MODULATORS AND METHODS OF MAKING AND USING THE SAME” (Vanderbilt University, priority 2021, published 2025)
Like-named read-outs stand apart in the source and are kept apart here.

Biological target: T1, hmGlu5 (Homo sapiens, UniProt P41594)
T1 construct: expressed in transfected cells; host or cells: HEK 293A
Experiment: mGlu5 Ca2+ flux assay in HEK 293A cells (negative allosteric modulation of glutamate EC80 response)
Assay type: cell-based
Details: for remaining activity at 30 µM: HEK293-A, read-out: hmGlu5 NAM Emin (%); for IC50: HEK 293A cells, Ca2+ flux, glutamate EC80, >10,000 = decrease without plateau, read-out: hmGlu5 NAM IC50
Protocol: HEK 293A cells stably expressing either rat or human mGlu5 were plated in black-walled, clear-bottomed, poly-D-lysine coated 384-well plates in 20 μL of assay medium (DMEM containing 10% dialyzed FBS, 20 mM HEPES, 100 units/mL penicillin/streptomycin plus 250 ng/mL Fungizone, and 1 mM sodium pyruvate) at a density of 20K cells/well. The cells were grown overnight at 37° C. in the presence of 5% CO2. The next day, medium was removed and the cells incubated with 20 μL of 2.3 μM Fluo-4, AM prepared as a 2.3 mM stock in DMSO and mixed in a 1:1 ratio with 10% (w/v) pluronic acid F-127 and diluted in assay buffer (Hank's balanced salt solution, 20 mM HEPES, and 2.5 mM probenecid) for 45 minutes at 37° C. Dye was removed, 20 μL of assay buffer was added, and the plate was incubated for 5 minutes at room temperature.
Ca^2+ flux was measured using the Functional Drug Screening System (FDSS7000, Hamamatsu, Japan). After establishment of a fluorescence baseline for about 3 seconds, the compounds of the present invention were added to the cells, and the response in cells was measured. 2.3 minutes later an EC20 concentration of the mGlu5 receptor agonist glutamate was added to the cells, and the response of the cells was measured for 1.9 minutes; an EC80 concentration of agonist was added and readings taken for an additional 1.7 minutes. All test compounds were dissolved and diluted to a concentration of 10 mM in 100% DMSO. Compounds were then serially diluted 1:3 in DMSO into 10 point concentration response curves, transferred to daughter plates, and further diluted into assay buffer to a 2× stock. Calcium fluorescence measures were recorded as fold over basal fluorescence; raw data was then normalized to the maximal response to glutamate. Antagonism of the agonist response of the mGlu5 receptor in the present invention was observed as a decrease in response to nearly maximal concentrations of glutamate in the presence of compound compared to the response to glutamate in the absence of compound.
The raw data file containing all time points was used as the data source in the analysis template. This was saved by the FDSS as a tab-delimited text file. Data were normalized using a static ratio function (F/F0) for each measurement of the total 360 values per well divided by each well's initial value. Data were then reduced to peak amplitudes (Max−Initial Min) using a time range that starts approximately 3 seconds prior to the glutamate EC20/EC80 addition and continues for approximately 90-120 seconds. This is sufficient time to capture the peak amplitude of the cellular calcium response. Individual amplitudes were expressed as % EMax by multiplying each amplitude by 100 and then dividing the product by the mean of the amplitudes derived from the glutamate ECMax-treated wells. IC50 values for test compounds were generated by fitting the normalized values versus the log of the test compound concentration (in mol/L) using a 4 parameter logistic equation where none of the parameters were fixed. Each of the three values collected at each concentration of test compound were weighted evenly.
For NAMs with a CRC that plateaus above 10% Glu Max, the IC50 values are reported, the compound is designated a “partial NAM” and the % Glu Max is reported. […] Compounds without measurable activity are designated as “>30,000 nM” since the top concentration of compound tested in the assay is 30 μM. […]

T1 sequence (P41594 21-1212): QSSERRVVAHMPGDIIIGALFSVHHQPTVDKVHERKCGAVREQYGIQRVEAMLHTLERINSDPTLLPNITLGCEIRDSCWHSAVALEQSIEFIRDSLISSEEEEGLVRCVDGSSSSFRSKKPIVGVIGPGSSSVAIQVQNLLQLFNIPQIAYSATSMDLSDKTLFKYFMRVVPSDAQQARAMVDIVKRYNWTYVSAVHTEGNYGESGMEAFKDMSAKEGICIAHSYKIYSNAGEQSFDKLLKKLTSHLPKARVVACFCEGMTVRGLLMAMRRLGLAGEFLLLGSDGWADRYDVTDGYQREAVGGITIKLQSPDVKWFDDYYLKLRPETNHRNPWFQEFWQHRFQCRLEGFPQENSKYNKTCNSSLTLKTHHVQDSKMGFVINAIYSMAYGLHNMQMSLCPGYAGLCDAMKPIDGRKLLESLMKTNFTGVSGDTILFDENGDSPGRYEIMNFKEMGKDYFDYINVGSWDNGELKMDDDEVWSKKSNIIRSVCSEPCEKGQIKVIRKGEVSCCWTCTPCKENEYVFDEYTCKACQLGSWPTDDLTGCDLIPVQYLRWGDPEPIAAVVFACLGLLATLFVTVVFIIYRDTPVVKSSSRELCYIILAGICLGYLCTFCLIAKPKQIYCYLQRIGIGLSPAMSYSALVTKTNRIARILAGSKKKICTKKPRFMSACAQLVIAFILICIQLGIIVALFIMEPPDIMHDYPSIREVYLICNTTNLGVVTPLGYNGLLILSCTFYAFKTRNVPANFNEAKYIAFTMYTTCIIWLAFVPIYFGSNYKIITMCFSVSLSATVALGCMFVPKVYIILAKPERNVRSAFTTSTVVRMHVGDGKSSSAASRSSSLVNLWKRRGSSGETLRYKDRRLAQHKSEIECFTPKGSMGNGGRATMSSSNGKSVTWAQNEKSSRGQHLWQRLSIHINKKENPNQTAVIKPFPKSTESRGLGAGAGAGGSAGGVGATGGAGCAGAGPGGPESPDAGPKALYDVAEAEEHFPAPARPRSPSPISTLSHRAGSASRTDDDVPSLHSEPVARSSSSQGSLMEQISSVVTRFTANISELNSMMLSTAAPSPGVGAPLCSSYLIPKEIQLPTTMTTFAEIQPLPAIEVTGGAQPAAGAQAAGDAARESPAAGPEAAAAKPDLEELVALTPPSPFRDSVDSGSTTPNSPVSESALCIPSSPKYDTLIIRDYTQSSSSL

Compound	remaining activity at 30 µM (% Glu max at 30 μM)	IC50	remaining activity at 30 µM
Cc1cc(-c2cncc(F)c2)cc(-c2nc(-c3ccc(F)cn3)no2)n1 [Compound 90, 5-(5-fluoro-6′-methyl-[3,4′-bipyridin]-2′-yl)-3-(5-fluoropyridin-2-yl)-1,2,4-oxadiazole]	2%	0.123 µM	
Fc1ccc(-c2nc(-c3cc(-c4cncc(F)c4)cc(C(F)F)n3)no2)nc1 [Compound 61, 3-(6′-(difluoromethyl)-5-fluoro-[3,4′-bipyridin]-2′-yl)-5-(5-fluoropyridin-2-yl)-1,2,4-oxadiazole]	6%	0.125 µM	
Cc1nc(-c2noc(-c3ccncc3)n2)cc(-c2cncc(F)c2)c1F [Compound 51, 3-(5,5′-difluoro-6′-methyl-[3,4′-bipyridin]-2′-yl)-5-(pyridin-4-yl)-1,2,4-oxadiazole]	12%	1.07 µM	
Cc1ccncc1-c1cc(-c2nnc(-c3ccc(F)cn3)o2)nc(C)c1F [Compound 42, 2-(5′-fluoro-4,6′-dimethyl-[3,4′-bipyridin]-2′-yl)-5-(5-fluoropyridin-2-yl)-1,3,4-oxadiazole]	2%	0.375 µM	
COc1ncc(-c2cc(-c3nnc(-c4ccc(F)cn4)o3)nc(C)c2F)cc1F [Compound 76, 2-(5,5′-difluoro-6-methoxy-6′-methyl-[3,4′-bipyridin]-2′-yl)-5-(5-fluoropyridin-2-yl)-1,3,4-oxadiazole]	9%	5.75 µM	
Cc1cc(-c2cncc(F)c2)cc(-c2noc(-c3ccc(F)cn3)n2)n1 [Compound 55, 3-(5-fluoro-6′-methyl-[3,4′-bipyridin]-2′-yl)-5-(5-fluoropyridin-2-yl)-1,2,4-oxadiazole]	2%	0.19 µM	
Cc1nc(-c2noc(-c3ccc(F)cn3)n2)cc(-c2cnn(C(F)F)c2)c1F [Compound 7, 3-(4-(1-(difluoromethyl)-1H-pyrazol-4-yl)-5-fluoro-6-methylpyridin-2-yl)-5-(5-fluoropyridin-2-yl)-1,2,4-oxadiazole]	2%	0.159 µM	
Cc1ccncc1-c1cc(-c2noc(-c3cscn3)n2)nc(C)c1F [Compound 27, 3-(5′-fluoro-4,6′-dimethyl-[3,4′-bipyridin]-2′-yl)-5-(thiazol-4-yl)-1,2,4-oxadiazole]	2%	0.308 µM	
Cc1nc(-c2nc(-c3cscn3)no2)cc(-c2cncc(F)c2)c1F [Compound 53, 5-(5,5′-difluoro-6′-methyl-[3,4′-bipyridin]-2′-yl)-3-(thiazol-4-yl)-1,2,4-oxadiazole]	23%	0.481 µM	
Cc1ccncc1-c1cc(-c2noc(-c3ccc(F)cn3)n2)nc(C)c1F [Compound 5, 3-(5′-fluoro-4,6′-dimethyl-[3,4′-bipyridin]-2′-yl)-5-(5-fluoropyridin-2-yl)-1,2,4-oxadiazole]	3%	0.098 µM	
Cc1nc(-c2noc(-c3cccc(F)c3)n2)cc(-c2cncc(F)c2)c1F [Compound 38, 3-(5,5′-difluoro-6′-methyl-[3,4′-bipyridin]-2′-yl)-5-(3-fluorophenyl)-1,2,4-oxadiazole]	14%	2.41 µM	
Cc1ccncc1-c1cc(-c2nc(-c3cccc(F)c3)c[nH]2)nc(C)c1F [Compound 63, 3′-fluoro-6′-(4-(3-fluorophenyl)-1H-imidazol-2-yl)-2′,4-dimethyl-3,4′-bipyridine]	4%	1.09 µM	
Cc1ccncc1-c1cc(-c2noc(-c3ccccn3)n2)nc(C)c1F [Compound 19, 3-(5′-fluoro-4,6′-dimethyl-[3,4′-bipyridin]-2′-yl)-5-(pyridin-2-yl)-1,2,4-oxadiazole]	2%	0.233 µM	
COc1c(-c2cncc(F)c2)cc(-c2n[nH]c(-c3ccc(F)cc3)n2)nc1C [Compound 102, 5-fluoro-6′-(5-(4-fluorophenyl)-1H-1,2,4-triazol-3-yl)-3′-methoxy-2′-methyl-3,4′-bipyridine]	2%	0.663 µM	
[2H]C([2H])([2H])Oc1c(-c2cncc(F)c2)cc(-c2nc(-c3ccc(F)cn3)no2)nc1C [Compound 103, 5-(5-fluoro-5′-(methoxy-d3)-6′-methyl-[3,4′-bipyridin]-2′-yl)-3-(5-fluoropyridin-2-yl)-1,2,4-oxadiazole]	5%	0.624 µM	
Cc1ccncc1-c1cc(-c2noc(-c3cnccn3)n2)nc(C)c1F [Compound 94, 3-(5′-fluoro-4,6′-dimethyl-[3,4′-bipyridin]-2′-yl)-5-(pyrazin-2-yl)-1,2,4-oxadiazole]	37%	> 10 µM	
Cc1nc(-c2noc(-c3ccc(F)cn3)n2)cc(-c2cnccc2Cl)c1F [Compound 69, 3-(4-chloro-5′-fluoro-6′-methyl-[3,4′-bipyridin]-2′-yl)-5-(5-fluoropyridin-2-yl)-1,2,4-oxadiazole]	3%	0.109 µM	
Cc1ccn(Cc2nc(-c3cc(-c4cnccc4C)c(F)c(C)n3)no2)n1 [Compound 65, 3-(5′-fluoro-4,6′-dimethyl-[3,4′-bipyridin]-2′-yl)-5-((3-methyl-1H-pyrazol-1-yl)methyl)-1,2,4-oxadiazole]	36%	> 10 µM	
COc1c(-c2cnccc2C)cc(-c2noc(-c3ccc(F)cn3)n2)nc1C [Compound 10, 5-(5-fluoropyridin-2-yl)-3-(5′-methoxy-4,6′-dimethyl-[3,4′-bipyridin]-2′-yl)-1,2,4-oxadiazole]	2%	0.641 µM	
Cc1ccncc1-c1cc(-c2noc(-c3cccc(C#N)c3)n2)nc(C)c1F [Compound 24, 3-(3-(5′-fluoro-4,6′-dimethyl-[3,4′-bipyridin]-2′-yl)-1,2,4-oxadiazol-5-yl)benzonitrile]	2%	0.085 µM	
Cc1cncc(-c2nc(-c3cc(-c4cnccc4C)c(F)c(C)n3)no2)c1 [Compound 87, 3-(5′-fluoro-4,6′-dimethyl-[3,4′-bipyridin]-2′-yl)-5-(5-methylpyridin-3-yl)-1,2,4-oxadiazole]	13%	4.29 µM	
Cc1cc(CC2CCOC2)cc(-c2noc(-c3ccc(F)cn3)n2)n1 (stereo not drawn) [Compound 86, 5-(5-fluoropyridin-2-yl)-3-(6-methyl-4-((tetrahydrofuran-3-yl)methyl)pyridin-2-yl)-1,2,4-oxadiazole]	1%	0.766 µM	
Cc1nc(-c2n[nH]c(-c3ccc(F)cn3)n2)cc(-c2cncc(F)c2)c1F [Compound 96, 3′,5-difluoro-6′-(5-(5-fluoropyridin-2-yl)-1H-1,2,4-triazol-3-yl)-2′-methyl-3,4′-bipyridine]	2%	0.064 µM	
Cc1ccncc1-c1cc(-c2noc(-c3cccc(Cl)n3)n2)nc(C)c1F [Compound 21, 5-(6-chloropyridin-2-yl)-3-(5′-fluoro-4,6′-dimethyl-[3,4′-bipyridin]-2′-yl)-1,2,4-oxadiazole]	4%	0.493 µM	
Cc1nc(-c2noc(-c3ccc(F)cn3)n2)cc(-c2cncc(F)c2)c1F [Compound 6, 3-(5,5′-difluoro-6′-methyl-[3,4′-bipyridin]-2′-yl)-5-(5-fluoropyridin-2-yl)-1,2,4-oxadiazole]	2%	0.059 µM	
COc1c(-c2cncc(F)c2)cc(-c2n[nH]c(-c3cccc(F)c3)n2)nc1C [Compound 101, 5-fluoro-6′-(5-(3-fluorophenyl)-1H-1,2,4-triazol-3-yl)-3′-methoxy-2′-methyl-3,4′-bipyridine]	11%	0.114 µM	
Cc1nc(-c2nnc(-c3cccnc3)o2)cc(-c2cncc(F)c2)c1F [Compound 80, 2-(5,5′-difluoro-6′-methyl-[3,4′-bipyridin]-2′-yl)-5-(pyridin-3-yl)-1,3,4-oxadiazole]		3.34 µM	58%
